Data from patent US12319699B2, “L-proline sulfonamide derivatives comprising pyrazolo[4,3-e]tetrazolo[4,5-b][1,2,4]triazine system, method of manufacturing thereof, uses thereof and pharmaceutical composition comprising the same” (UNIWERSYTET MEDYCZNY W BIALYMSTOKU, priority 2018, dated 2025).

Legend:
[1] = Body weight of xenograft mice after two-week therapy; format: in vivo; conditions: mice with DLD-1 and HT-29 xenografts, 50 μg/kg s.c. once a day
Method: (§1) The second stage of the study was carried out with the use of animals (Cby.Cg-Foxn1nu/J mice, females) (Jackson Laboratory, USA). […] All procedures were carried out in accordance with the guidelines for experiments in animals and a protocol approved by the Local Ethics Committee (Resolution No. August 2018).
(§2) After the first week, when tumours reached about 5 mm in diameter, i.e. the size which according to literature data is suitable for carrying out further steps of examination, the mice began receiving subcutaneous injections of the sulfonamide derivative of 7-methyl-5-phenyl-pyrazolo[4,3-e]tetrazolo[4,5-b][1,2,4]triazine comprising 4-hydroxy-L-proline methyl ester in the sulfonamide group according to the invention (the compound of Formula 3) in a dose of 50 μg/kg once a day for two weeks. The moment of administration of the compound was marked as time 0. […] Before the administration of the sulfonamide derivative of 7-methyl-5-phenyl-pyrazolo[4,3-e]tetrazolo[4,5-b][1,2,4]triazine comprising 4-hydroxy-L-proline methyl ester in the sulfonamide group according to the invention (time 0), after the first week (time 1) and the second week (time 2) of administering this compound, the sizes of tumours were measured in two dimensions by means of a digital calliper. […]
Additionally, the effect of the compound of Formula 3 on the body weight of the animals after the two-week therapy was assessed.

[2] = test system: DLD-1 human colorectal cancer cells; assay: Cytotoxicity, MTT assay (Carmichael's method), cell survival; format: cell-based; conditions: DLD-1, 24-hour incubation
Method: DLD-1 human colorectal cancer cells (ATCC CCL-221, Manassas, VA, USA) were grown in DMEM (Dulbecco's Modified Eagle's Medium) supplemented with 10% fetal bovine serum (FBS), 2 mM glutamine, 50 U/ml penicillin, 50 μg/ml streptomycin at 37° C., in atmosphere containing 5% of CO2. Then the cells were counted in a hemocytometer and transferred in the amount of 1×10^6 cells per well in 1 ml of culture medium from Costar flasks (Sigma, USA) to Nunc 6-well plates (Wiesbaden, Germany). The cells were transferred using calcium-free phosphate buffer with the addition of 0.05% trypsin and 0.02% EDTA. […] Within the subsequent 24 hours the cells covered at least 80% of the surface of each plate well. […]
Cytotoxicity of the examined compounds according to the invention was measured by Carmichael's method (Carmichael J et al, Cancer Res., 1987, 47:943-946) and cell viability was determined using the tetrazolium salt (MT) in MTT assay. […] In a cell lysate prepared in such manner absorbance at 630 nm was measured. The result of absorbance obtained in the control cell cultures was assumed to be 100%. The viability of cells incubated in the presence of the examined compounds was expressed as percentage of the control values. The significance level p was determined by the nonparametric Mann-Whitney U test by means of SigmaStat software. […]

[3] = Haematological analysis of xenograft mice after two-week therapy; format: in vivo; conditions: mice with DLD-1 and HT-29 xenografts, 50 μg/kg s.c. once a day
Method: as §1, §2

[4] = test system: DLD-1 xenografts; assay: Tumour growth in mice with xenografts; format: in vivo; conditions: mice with DLD-1 xenografts
Method: as §1
(§3) The studies in in vivo conditions were carried out in the Centre of Experimental Medicine of the Medical University of Bialystok. It is a modern institution which ensures a high standard of SPF barrier animal facilities. Animals are housed in a room with […], in the optimal temperature of 22° C., 55% air humidity, with fifteen air changes per hour (with the speed not exceeding 0.3 m/s) and 12:12 light-dark cycle. The animals were under 24-hour monitoring and period controls of both the animals (in accordance with FELASA recommendations) and the rooms in which they were housed were carried out. The Centre for Experimental Medicine has a Good Laboratory Practice (GLP) certificate.
(§4) During the initial studies the mice were divided into two groups.
(§5) After the first week, when tumours reached about 5 mm in diameter, i.e. the size which according to literature data is suitable for carrying out further steps of examination, the mice began receiving subcutaneous injections of the sulfonamide derivative of 7-methyl-5-phenyl-pyrazolo[4,3-e]tetrazolo[4,5-b][1,2,4]triazine comprising 4-hydroxy-L-proline methyl ester in the sulfonamide group according to the invention (the compound of Formula 3) in a dose of 50 μg/kg once a day for two weeks. The moment of administration of the compound was marked as time 0. The control group was constituted by animals that received subcutaneously 50 μl of 10% DMSO in PBS (the solvent for the compound of Formula 3). Before the administration of the sulfonamide derivative of 7-methyl-5-phenyl-pyrazolo[4,3-e]tetrazolo[4,5-b][1,2,4]triazine comprising 4-hydroxy-L-proline methyl ester in the sulfonamide group according to the invention (time 0), after the first week (time 1) and the second week (time 2) of administering this compound, the sizes of tumours were measured in two dimensions by means of a digital calliper. The volume of tumours was expressed in mm3 in accordance with the calculations that were described by Feldman et al. (Feldman J P. Goldwasser R. Mark S. Schwartz J. Orion I. JAQM. 2009.4.455-462).

[5] = test system: HT-29 xenografts; assay: Tumour growth in mice with xenografts; format: in vivo; conditions: mice with HT-29 xenografts
Method: as §1, §3, §4, §5

[6] = test system: DLD-1 colorectal cancer cells; assay: Decrease in mitochondrial membrane potential, JC-1 MitoScreen flow cytometry; format: cell-based, human; conditions: 24 hours
Method: DLD-1 human colorectal cancer cells (ATCC CCL-221, Manassas, VA, USA) were grown in DMEM (Dulbecco's Modified Eagle's Medium) supplemented with 10% fetal bovine serum (FBS), 2 mM glutamine, 50 U/ml penicillin, 50 μg/ml streptomycin at 37° C., in atmosphere containing 5% of CO2. Then the cells were counted in a hemocytometer and transferred in the amount of 1×10^6 cells per well in 1 ml of culture medium from Costar flasks (Sigma, USA) to Nunc 6-well plates (Wiesbaden, Germany). The cells were transferred using calcium-free phosphate buffer with the addition of 0.05% trypsin and 0.02% EDTA. […] Within the subsequent 24 hours the cells covered at least 80% of the surface of each plate well. The cells prepared in this manner were incubated with the examined compounds for 24 hours and then used for further experiments.
For the assessment of changes in mitochondrial potential JC-1 MitoScreen kit (BD Biosciences. USA) was used. DLD-1 and HT-29 cancer cells covering about 80% of the plate surface were incubated with the examined compounds according to the invention at specific concentrations in an incubator at 37° C. in 5% CO2 atmosphere for 24 hours. Both examined compounds according to the invention were used at a concentration of 1.5 μM and 3.0 μM. After the incubation period, the medium was removed, the buffer included in the kit was added and the cells after washing two times were suspended in a mixture of JC-1 dye (5,5′,6,6′-tetrachloro-1,1′,3,3′-tetraethylbenzimidazol carbocyanine iodide) with a buffer at a concentration of 10 μg/ml. Subsequently, the samples were incubated in darkness for 15 minutes, washed with PBS solution and subjected to immediate analysis with the use of BD FacsCanto II flow cytometer; the results were assessed with the use of BD FacsDiva software. In live intact cells JC-1 dye accumulates in mitochondria and forms orange fluorescing aggregates. A decrease in mitochondrial potential ΔΨm is characterized by disintegration of these aggregates and green fluorescence.

[7] = 50 μg/kg s.c. once a day for two weeks, p<0.05
[8] = 50 μg/kg s.c. once a day, after the second week, p<0.001

Structure (SMILES) | effect on body weight of the animals vs control [1] | IC50 [2] [nM] | haematological parameters (WBC, RBC, PLT, HCT, HGB, MCV, MCH, MCHC) [3] | tumour weight post mortem vs control [4, 7] | inhibition of tumour growth (tumour volume) vs control [4, 8] | tumour weight post mortem vs control [5, 7] | inhibition of tumour growth (tumour volume) vs control [5, 8] | decrease of ΔΨm, % of the cell population ([6]; DLD-1, 1.5 μM) [%] | decrease of ΔΨm, % of the cell population ([6]; DLD-1, 3.0 μM) [%]
COC(=O)C1CC(O)CN1S(=O)(=O)c1ccc(-n2nc(C)c3nc4nnnn4nc32)cc1 (stereo not drawn) [Compound of Formula 3, Methyl 4-hydroxy-1-[4-(7-methyl-5H-pyrazolo[4,3-e]tetrazolo[4,5-b][1,2,4]triazyn-5-yl)phenylsulfonyl]pyrrolidine-2-carboxylate] | No significant differences | 3100 ± 20 | did not reveal any statistically significant changes | Statistically significant reduction in tumour weight | statistically significant inhibition of tumour growth | Statistically significant reduction in tumour weight | statistically significant inhibition of tumour growth | 49.5 | 71.3
COC(=O)C1CCCN1S(=O)(=O)c1ccc(-n2nc(C)c3nc4nnnn4nc32)cc1 (stereo not drawn) [Compound of Formula 2, Methyl 1-[4-(7-methyl-5H-pyrazol[4,3-e]tetrazolo[4,5-b][1,2,4]triazyn-5-yl)phenylsulfonyl]pyrrolidine-2-carboxylate] | – | 1100 ± 10 | – | – | – | – | – | 48.9 | 63.8
